Assay results reported in patent US20240217988A1, “ESTROGEN RECEPTOR ANTAGONIST” (Shenzhen Forward Pharmaceuticals Co., Limited, priority 2021, published 2024).

Tests used:
[1] = Stability in human liver microsomes in vitro; format: in vitro ADME; settings: human liver microsomes
Description: Test Example 4: Test for Stability in Human Liver Microsomes In Vitro Eight 96-well incubation plates were prepared and named [NT], Blank60 and NCF60, respectively. […] No test compound or control compound was added to Blank60 plate, and samples were taken after incubation for 60 min. NCF60 plate was incubated with a potassium phosphate buffer instead of an NADPH regeneration system solution (Sigma, N0505) for 60 min. […] Only the microsome working solution was added to Blank60 plate, and the incubation plates Blank60, T5, T15, T30, T45 and T60 except T0 and NCF60 were then placed in a water bath at 37° C. and pre-incubated for about 10 min. To the samples of T0 plate, 600 μL of a stop solution (acetonitrile:methanol (95:5, v/v) solution containing 100 ng/mL of tolbutamide (Sigma, T0891)) was added first, and the NADPH regeneration system working solution was then added. 98 μL of a potassium phosphate buffer was added to each well of NCF60 plate and incubated for 60 min. After the pre-incubation in the incubation plates Blank60, T5, T15, T30, T45 and T60 was completed, 98 μL of the NADPH regeneration system working solution was added to each sample well to initiate the reaction. After an appropriate incubation time (such as 5, 15, 30, 45 and 60 min), 600 μL of a stop solution was added to each sample well and the control sample well in Blank60, […] the reaction. All the sample plates were shaken uniformly and centrifuged at 3220×g for 20 min. 200 μL of test sample supernatant was separately taken and diluted in 200 μL of an aqueous solution containing 0.3% formic acid for LC-MS/MS analysis, and 100 μL of control sample supernatant was taken and diluted in 300 μL of pure water for LC-MS/MS analysis. Calculation was performed according to the following formula: [formula] [formula] [formula] [formula] [formula] [formula]

GST-ERα-LBD = GST-ERα-LBD (Homo sapiens (Human), UniProt P03372); assay: ERα TR-FRET test; format: biochemical; settings: estradiol final concentration 1.5 nM, biotin-SRC2
GST-ERα-LBD, sequence (P03372 311-547): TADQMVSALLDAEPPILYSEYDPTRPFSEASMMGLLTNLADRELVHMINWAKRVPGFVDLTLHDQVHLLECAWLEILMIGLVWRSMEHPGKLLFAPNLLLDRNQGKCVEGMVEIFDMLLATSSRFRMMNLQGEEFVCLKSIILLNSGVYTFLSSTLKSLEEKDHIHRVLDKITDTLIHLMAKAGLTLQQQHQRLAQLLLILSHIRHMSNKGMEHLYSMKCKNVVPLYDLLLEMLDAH
Description: 1× Tris-HCl (Sigma, PHG0002) protein buffer was prepared and mixed for later use. The compound to be detected was prepared into a stock solution with a concentration of 2 mM and then subjected to serial 3-fold gradient dilution, resulting in a total of 10 concentrations.
Preparation of 1× protein mixed solution: firstly, 2× GST-ERα-LBD (Invitrogen, A15677)/MAb anti-GST-Eu (Cisbio, 61GSTKLA) mixed solution was prepared according to the following table.
2× biotin-SRC2/streptavidin-XL665 (Cisbio, 610SAXLA) mixed solution was prepared.
The above 2× GST-NR-LBD/ MAb anti-GST-Eu solution and 2× biotin-SRC2/streptavidin-XL665 solution were uniformly mixed at a volume ratio of 1:1; and the 1× protein mixed solution was added to each well of a 384-well plate, with 20 μL being added per well, the 384-well plate was put into a centrifuge and centrifuged at room temperature at 1000 rpm for 10 seconds, and it was taken out, then left to stand at room temperature for 3 h, and then read by EnVision multifunctional microplate reader.
The inhibition rate was calculated according to the following formula: […]
The data were imported into Graphpad Prism, and Log(agonist) vs. response-variable slope was used for curve fitting.
Y=Bottom+(Top−Bottom)/(1+10^((LogEC50−X)*HillSlope)) Fitting formula

[2] = system: Human breast cancer cells MCF-7; assay: MCF-7 cell proliferation experiment; format: cell-based; settings: Homo sapiens, MCF7; MCF-7 cells, 72 hours, Cell Titer-Glo
Description: Test Example 2: MCF-7 Cell Proliferation Experiment
Human breast cancer cells MCF-7 (HTB-22, purchased from ATCC) were inoculated into a 96-well plate. The culture medium was an MEM (Hyclone, SH30024.01B) culture medium containing 10% of FBS (Gibco, 10099-141), 1% of pyruvic acid (Sigma, S8636), and 1% of nonessential amino acid (Sigma, M7145), and the inoculation density was 4,000 cells/well. The cells were cultured at 37° C., 5% CO2. The compound was prepared into a 20 mM stock solution, which was subjected to gradient dilution to a final concentration of […] with 100% DMSO (Sigma, D2650) and then diluted 20 folds with a culture medium containing 2% of FBS. After 24 hours of culture, the culture medium was removed, 90 μL of a culture medium containing 2% of FBS and 10 μL of drug were added to each well, while 10 μL of DMSO was added to the control group, and they were gently shaken and mixed. The blank group only contained 100 μL of 2% FBS culture medium. They were placed in an incubator and cultured at 37° C., 5% CO2. After 72 hours, 50 μL of mixed Cell Titer-Glo (Promega, G7571) was added. They were shaken and mixed uniformly, and placed at room temperature for 10 min. The chemiluminescence signal value was determined. The negative control was 0.5% DMSO well.

ERα = ERα (Homo sapiens (Human), UniProt P03372); assay: Degradation effect of compound on ERα (ERα DuoSet IC ELISA in MCF-7 cells); format: cell-based; settings: 24 h with compound, read-out: IC50 value of ERα degradation by compound
ERα, sequence (P03372 whole entry): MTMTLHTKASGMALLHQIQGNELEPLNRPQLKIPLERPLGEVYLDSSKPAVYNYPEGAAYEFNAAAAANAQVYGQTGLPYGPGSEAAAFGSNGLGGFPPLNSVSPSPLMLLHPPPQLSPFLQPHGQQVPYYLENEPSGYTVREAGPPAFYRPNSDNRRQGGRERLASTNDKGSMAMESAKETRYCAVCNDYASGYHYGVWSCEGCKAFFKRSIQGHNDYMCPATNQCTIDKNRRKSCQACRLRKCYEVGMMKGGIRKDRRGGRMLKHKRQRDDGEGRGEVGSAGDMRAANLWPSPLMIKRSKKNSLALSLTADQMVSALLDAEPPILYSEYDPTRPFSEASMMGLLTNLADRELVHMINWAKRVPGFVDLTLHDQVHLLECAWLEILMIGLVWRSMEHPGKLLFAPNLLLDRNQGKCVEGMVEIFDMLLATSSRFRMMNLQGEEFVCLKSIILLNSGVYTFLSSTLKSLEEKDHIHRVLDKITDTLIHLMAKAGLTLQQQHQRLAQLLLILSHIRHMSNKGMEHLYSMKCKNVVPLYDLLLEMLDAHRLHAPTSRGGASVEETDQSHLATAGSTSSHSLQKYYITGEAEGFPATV
Description: In this test example, ERα DuoSet IC ELISA Kit (R&D, DYC5715) was used to detect the degradation effect of the compound on ERα. On the first day of the experiment, human breast cancer cells MCF-7 (the source was as above) were inoculated into a 24-well plate. The culture medium was an MEM culture medium containing 10% of activated-carbon-treated FBS (Tocyto, UT61204), 1% of pyruvic acid and 1% of nonessential amino acid. The inoculation density was 150,000 cells/well. The cells were cultured at 37° C., 5% CO2 for 24 h.
On the second day of the experiment, the compound to be tested was diluted in gradient and added to a 24-well plate containing cells. The cells were cultured for 24 h at 37° C., 5% CO2. ERα capture antibody was diluted to 1 μg/ml with PBS (Corning, 21-040-CVR) and added to a 96-well plate at 100 μL/well, and the plate was […] coated overnight at room temperature.
On the third day of the experiment, the coated 96-well plate was washed three times with PBS, 300 μL of a blocking solution (R&D, DY995) was added to each well, and the plate was blocked at room temperature for 1 h. The 24-well plate was washed once with PBS, and the residual liquid was sucked off. […] The diluted cell lysate was taken and added to the blocked 96-well plate, with 100 μL per well, and incubated at room temperature for 2 h. The plate was washed three times with a washing solution (R&D, WA126), and a primary antibody was then added. After incubation for 1 h, the 96-well plate was washed four times, a secondary antibody was added, and incubation was carried out at room temperature in the dark for 30 min. The plate was washed four times with the washing solution, and TMB (R&D, DY999) was added. After 15 minutes of development, the reaction was terminated with a stop solution (R&D, DY994), and the light absorption at 450 nm was read.

Molecule COc1cc(NC2CN(CCCF)C2)cc(F)c1[C@@H]1c2ccc3[nH]c(=O)oc3c2C[C@@H](C)N1CC(F)(F)F [Example 34, (6S,8R)-6-(4-((1-(3-fluoropropyl)azetidin-3-yl)amino)-2-methoxy-6-fluoro-phenyl)-8-methyl-7-(2,2,2-trifluoroethyl)-6,7,8,9-6,7,8,9-tetrahydrooxazolo[5,4-f]isoquinolin-2(3H)-one] has a half-life ([1]; microsome protein 1 mg/mL working solution, NADPH) of 1.78 h, a CLint scaled ([1]; scaled to liver) of 8.9 mL/min/kg and a microsomal CLint ([1]; read-out: CLint(mic)) of 10.1 µL/min/mg. The IC50 (GST-ERα-LBD) was 19400 pM, the IC50 [2] was 190 pM and the DC50 (ERα) was 240 pM.
